From PubChem BioAssay AID1963831 (Molecular Pharmacology Branch, DTP, NCI, 2024)

System: 889142-216-R-J1-PDC complex spheroid viability
Assay: Anticancer human tumor 889142-216-R-J1-PDC patient-derived bladder carcinoma cell line growth inhibition [POLQ]
Settings: for IC50: curve of first compound; for viability, T/C: stronger effect = lower value
Outline: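 Patient-derived tumour cells were co-cultured with HUVEC and mesenchymal stem cells as multicellular spheroids at 37 °C. They were treated with POLQ inhibitors (novobiocin, ART-558, RP6685) alone or combined with other agents. Top concentrations were at or near clinical Cmax (otherwise 10 microM; SN-38 at 1 microM), decreasing in half-log steps.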

[1] = second compound 0.0316 µM, first compound 0.0316 µM
[2] = second compound 0.0316 µM, first compound 0.1 µM
[3] = second compound 0.0316 µM, first compound 0.316 µM
[4] = second compound 0.0316 µM, first compound 1 µM
[5] = second compound 0.0316 µM, first compound 3.16 µM
[6] = second compound 0.0316 µM, first compound 10 µM
[7] = second compound 0.1 µM, first compound 0.0316 µM
[8] = second compound 0.1 µM, first compound 0.1 µM
[9] = second compound 0.1 µM, first compound 0.316 µM
[10] = second compound 0.1 µM, first compound 1 µM
[11] = second compound 0.1 µM, first compound 3.16 µM
[12] = second compound 0.1 µM, first compound 10 µM
[13] = second compound 0.316 µM, first compound 0.0316 µM
[14] = second compound 0.316 µM, first compound 0.1 µM
[15] = second compound 0.316 µM, first compound 0.316 µM
[16] = second compound 0.316 µM, first compound 1 µM
[17] = second compound 0.316 µM, first compound 3.16 µM
[18] = second compound 0.316 µM, first compound 10 µM
[19] = second compound 1 µM, first compound 0.0316 µM
[20] = second compound 1 µM, first compound 0.1 µM
[21] = second compound 1 µM, first compound 0.316 µM
[22] = second compound 1 µM, first compound 1 µM
[23] = second compound 1 µM, first compound 3.16 µM
[24] = second compound 1 µM, first compound 10 µM
[25] = second compound 3.16 µM, first compound 0.0316 µM
[26] = second compound 3.16 µM, first compound 0.1 µM
[27] = second compound 3.16 µM, first compound 0.316 µM
[28] = second compound 3.16 µM, first compound 1 µM
[29] = second compound 3.16 µM, first compound 3.16 µM
[30] = second compound 3.16 µM, first compound 10 µM
[31] = second compound 10 µM, first compound 0.0316 µM
[32] = second compound 10 µM, first compound 0.1 µM
[33] = second compound 10 µM, first compound 0.316 µM
[34] = second compound 10 µM, first compound 1 µM
[35] = second compound 10 µM, first compound 3.16 µM
[36] = second compound 10 µM, first compound 10 µM
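Further: spheroids exposed to compounds for seven days.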
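Wherever viability, T/C is given: 100% = DMSO vehicle control viability.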

## Nc1ccn(C2OC(CO)C(O)C2(F)F)c(=O)n1 (stereo unspecified) + COC1C(OC(N)=O)C(O)C(Oc2ccc3c(O)c(NC(=O)c4ccc(O)c(CC=C(C)C)c4)c(=O)oc3c2C)OC1(C)C
Second compound 0.0316 µM
  IC50: 830 nM
Second compound 0.1 µM
  IC50: 225 nM
Second compound 0.316 µM
  IC50: 202 nM
Second compound 1 µM
  IC50: 250 nM
Second compound 3.16 µM
  IC50: 180 nM
Second compound 10 µM
  IC50: 533 nM
[1]
  viability, T/C: 60.8%
[2]
  viability, T/C: 49.5%
[3]
  viability, T/C: 51.2%
[4]
  viability, T/C: 49.7%
[5]
  viability, T/C: 43.4%
[6]
  viability, T/C: 27.4%
[7]
  viability, T/C: 78.2%
[8]
  viability, T/C: 60%
[9]
  viability, T/C: 41%
[10]
  viability, T/C: 43.5%
[11]
  viability, T/C: 42.4%
[12]
  viability, T/C: 28.4%
[13]
  viability, T/C: 68.4%
[14]
  viability, T/C: 56.6%
[15]
  viability, T/C: 44.5%
[16]
  viability, T/C: 38.9%
[17]
  viability, T/C: 43.5%
[18]
  viability, T/C: 31.8%
[19]
  viability, T/C: 64.5%
[20]
  viability, T/C: 58.3%
[21]
  viability, T/C: 45.5%
[22]
  viability, T/C: 42.1%
[23]
  viability, T/C: 37.6%
[24]
  viability, T/C: 30.3%
[25]
  viability, T/C: 64.5%
[26]
  viability, T/C: 52.4%
[27]
  viability, T/C: 43.7%
[28]
  viability, T/C: 43.7%
[29]
  viability, T/C: 38.1%
[30]
  viability, T/C: 31.4%
[31]
  viability, T/C: 72.5%
[32]
  viability, T/C: 60.2%
[33]
  viability, T/C: 52.7%
[34]
  viability, T/C: 45.3%
[35]
  viability, T/C: 42.6%
[36]
  viability, T/C: 30.5%

## O=C(c1cc(Cc2n[nH]c(=O)c3ccccc23)ccc1F)N1CCN(C(=O)C2CC2)CC1 + COC1C(OC(N)=O)C(O)C(Oc2ccc3c(O)c(NC(=O)c4ccc(O)c(CC=C(C)C)c4)c(=O)oc3c2C)OC1(C)C
Second compound 0.0316 µM
  IC50: > 10000 nM
Second compound 0.1 µM
  IC50: > 10000 nM
Second compound 0.316 µM
  IC50: > 10000 nM
Second compound 1 µM
  IC50: > 10000 nM
Second compound 3.16 µM
  IC50: > 10000 nM
Second compound 10 µM
  IC50: > 10000 nM
[1]
  viability, T/C: 93%
[2]
  viability, T/C: 92.2%
[3]
  viability, T/C: 77.2%
[4]
  viability, T/C: 103%
[5]
  viability, T/C: 71%
[6]
  viability, T/C: 68.6%
[7]
  viability, T/C: 101%
[8]
  viability, T/C: 117%
[9]
  viability, T/C: 104%
[10]
  viability, T/C: 109%
[11]
  viability, T/C: 80.5%
[12]
  viability, T/C: 83.5%
[13]
  viability, T/C: 94.4%
[14]
  viability, T/C: 111%
[15]
  viability, T/C: 114%
[16]
  viability, T/C: 102%
[17]
  viability, T/C: 95.5%
[18]
  viability, T/C: 72%
[19]
  viability, T/C: 122%
[20]
  viability, T/C: 116%
[21]
  viability, T/C: 109%
[22]
  viability, T/C: 79.3%
[23]
  viability, T/C: 82.5%
[24]
  viability, T/C: 65.5%
[25]
  viability, T/C: 123%
[26]
  viability, T/C: 109%
[27]
  viability, T/C: 104%
[28]
  viability, T/C: 101%
[29]
  viability, T/C: 78.4%
[30]
  viability, T/C: 75.5%
[31]
  viability, T/C: 129%
[32]
  viability, T/C: 106%
[33]
  viability, T/C: 84.4%
[34]
  viability, T/C: 84.8%
[35]
  viability, T/C: 103%
[36]
  viability, T/C: 77.9%

## CC1COCCN1c1cc(-c2ccnn2C)c2ccnc(-c3ccn[nH]3)c2n1 (stereo unspecified) + Cc1cccc(N(C)C(=O)C2C(O)CCN2c2nc(C)cc(C(F)(F)F)c2C#N)c1
Second compound 0.0316 µM
  IC50: 215 nM
Second compound 0.1 µM
  IC50: 144 nM
Second compound 0.316 µM
  IC50: 162 nM
Second compound 1 µM
  IC50: 264 nM
Second compound 3.16 µM
  IC50: 242 nM
Second compound 10 µM
  IC50: 154 nM
[1]
  viability, T/C: 84.3%
[2]
  viability, T/C: 52.8%
[3]
  viability, T/C: 50.3%
[4]
  viability, T/C: 37.8%
[5]
  viability, T/C: 31.6%
[6]
  viability, T/C: 25.9%
[7]
  viability, T/C: 67.9%
[8]
  viability, T/C: 55%
[9]
  viability, T/C: 40.4%
[10]
  viability, T/C: 34.7%
[11]
  viability, T/C: 32.2%
[12]
  viability, T/C: 25.8%
[13]
  viability, T/C: 79.9%
[14]
  viability, T/C: 54%
[15]
  viability, T/C: 43.4%
[16]
  viability, T/C: 33.9%
[17]
  viability, T/C: 29.4%
[18]
  viability, T/C: 25.8%
[19]
  viability, T/C: 74.3%
[20]
  viability, T/C: 59.2%
[21]
  viability, T/C: 45.9%
[22]
  viability, T/C: 41.7%
[23]
  viability, T/C: 32.3%
[24]
  viability, T/C: 26.9%
[25]
  viability, T/C: 76.3%
[26]
  viability, T/C: 56.4%
[27]
  viability, T/C: 42.5%
[28]
  viability, T/C: 48.9%
[29]
  viability, T/C: 32.2%
[30]
  viability, T/C: 27.9%
[31]
  viability, T/C: 57.4%
[32]
  viability, T/C: 56.5%
[33]
  viability, T/C: 40.8%
[34]
  viability, T/C: 34.7%
[35]
  viability, T/C: 30.6%
[36]
  viability, T/C: 26.9%
